Data as given in ChEMBL document CHEMBL2424542, “3-Carboxy-pyrazolinalanine as a new scaffold for developing potent and selective NMDA receptor antagonists” (Eur J Med Chem, 2013).

How the values were obtained:
Assay type in all cases: cell membranes, Membrane
[1] = Displacement of [3H]AMPA from AMPA receptor in rat cortical membranes
[2] = biological target: Glutamate NMDA receptor; test: Displacement of [3H]CGP39653 from NMDA receptor in rat cortical membranes
[3] = Displacement of [3H]KAIN from kainate receptor in rat cortical membranes

| Compound | IC50 [1] | Ki [2] | IC50 [3] |
| --- | --- | --- | --- |
| N[C@H](C[C@@H]1CC(C(=O)O)=NN1c1ccccc1)C(=O)O (racemic) | > 100 µM | 0.2 µM | > 100 µM |
| N[C@H](C[C@@H]1CC(C(=O)O)=NO1)C(=O)O (racemic) | > 100 µM | – | > 100 µM |
| N[C@H](C[C@H]1CC(C(=O)O)=NO1)C(=O)O (racemic) | > 100 µM | – | > 100 µM |

Now from value to molecule:

| IC50 [1] | Ki [2] | IC50 [3] | Compound |
| --- | --- | --- | --- |
| > 100 µM | 1.4 µM | > 100 µM | N[C@H](C[C@H]1CC(C(=O)O)=NN1Cc1ccccc1)C(=O)O (racemic) |
| > 100 µM | 0.026 µM | > 100 µM | N[C@H](C[C@H]1CC(C(=O)O)=NN1c1ccccc1)C(=O)O (racemic) |
| > 100 µM | 1.7 µM | > 100 µM | N[C@H](C[C@@H]1CC(C(=O)O)=NN1)C(=O)O (racemic) |
| > 100 µM | 9.9 µM | > 100 µM | N[C@H](C[C@@H]1CC(C(=O)O)=NN1Cc1ccccc1)C(=O)O (racemic) |
| > 100 µM | 0.17 µM | > 100 µM | N[C@H](C[C@H]1CC(C(=O)O)=NN1)C(=O)O (racemic) |
